Measurements reported in ChEMBL document CHEMBL4428086, “Quassinoids: Viral protein R inhibitors from Picrasma javanica bark collected in Myanmar for HIV infection” (Bioorg Med Chem Lett, 2016).

Legend:
Format in all cases: cell-based
[1] = test system: Human immunodeficiency virus 1; assay: Inhibition of c-myc and His6-tagged full length HIV1 NL4-3 Vpr transfected in human TREx-HeLa cells assessed as cell proliferation at 1.25 uM after 48 hrs in presence of tetracycline by WST-8 assay (reference value: 100 +/- 1%); parameters: scale not given: the % may be the effect or the level left
[2] = test system: Human immunodeficiency virus 1; assay: Inhibition of c-myc and His6-tagged full length HIV1 NL4-3 Vpr transfected in human TREx-HeLa cells assessed as cell proliferation at 2.5 uM after 48 hrs in presence of tetracycline by WST-8 assay (reference value: 100 +/- 1%); parameters: scale not given: the % may be the effect or the level left
[3] = test system: Human immunodeficiency virus 1; assay: Inhibition of c-myc and His6-tagged full length HIV1 NL4-3 Vpr transfected in human TREx-HeLa cells assessed as cell proliferation at 5 uM after 48 hrs in presence of tetracycline by WST-8 assay (reference value: 100 +/- 1%); parameters: scale not given: the % may be the effect or the level left
HeLa = assay: Cytotoxicity against human TREx-HeLa cells assessed as cell viability at 2.5 uM after 48 hrs by WST-8 assay
[4] = test system: Human immunodeficiency virus 1; assay: Inhibition of c-myc and His6-tagged full length HIV1 NL4-3 Vpr transfected in human TREx-HeLa cells assessed as cell proliferation at 1.25 uM after 48 hrs in presence of tetracycline by WST-8 assay

Q: For `COC1=C(C)[C@@H]2CC(=O)O[C@@H]3C[C@H]4CC[C@H](O)C(=O)[C@]4(C)[C@@H](C1=O)[C@@]32C`, which Activity [1] is on record?
A: 156%

Q: And the Activity [2]?
A: 156%

Q: What about the Activity [3] of the same compound?
A: 158%

Q: And the Activity (HeLa)?
A: Non-Toxic

Q: Which Activity [1] does the source give for `COC1=CC[C@@H]2C[C@H]3OC(O)C[C@H]4C(C)=C(OC)C(=O)[C@H]([C@@]2(C)C1=O)[C@@]34C` (stereo not given in full) here?
A: 170%

Q: What about the Activity [2] of the same compound?
A: 174%

Q: What about the Activity [3] of the same compound?
A: 178%

Q: And the Activity (HeLa)?
A: Non-Toxic

Q: How did the Activity [1] turn out when `COC1=C(OC)C(=O)[C@@]2(C)[C@H](C1)C[C@H]1OC(=O)C[C@H]3C(CO)=C(OC)C(=O)[C@H]2[C@@]13C` was run?
A: 139%

Q: And the Activity [2]?
A: 126%

Q: And the Activity [3]?
A: 127%

Q: And the Activity (HeLa)?
A: Non-Toxic

Q: Which results are given for `COC1=C(OC)C(=O)[C@@]2(C)[C@H](C1)C[C@H]1OC(=O)C[C@@]3(O)C(C)=C(OC)C(=O)[C@H]2[C@@]13C`?
A: Activity [1]: 141%; Activity [2]: 138%; Activity [3]: 139%; Activity (HeLa): Non-Toxic

Q: What does the source list for `COC1=CC(=O)[C@@H]2C[C@H]3OC(=O)C[C@H]4C(C)=C(OC)C(=O)[C@H]([C@@]2(C)C1=O)[C@@]34C`?
A: Activity [1]: 117%; Activity [2]: 155%; Activity [3]: 155%; Activity (HeLa): Non-Toxic

Q: How did the Activity [1] turn out when `COC1=C(OC)C(=O)[C@@]2(C)[C@H](C1)C[C@H]1OC(=O)C[C@H]3C(C)=C(OC)C(=O)[C@H]2[C@@]13C` was run?
A: 112%

Q: And the Activity [2]?
A: 136%

Q: And the Activity [3]?
A: 134%

Q: And the Activity (HeLa)?
A: Non-Toxic

Q: What does the source list for `COC1=CC[C@@H]2C[C@H]3OC(=O)C[C@H]4C(C=O)=C(OC)C(=O)[C@H]([C@@]2(C)C1=O)[C@@]34C`?
A: Activity [1]: 131%; Activity [2]: 153%; Activity [3]: 152%; Activity (HeLa): Non-Toxic

Q: `COC1=CC[C@@H]2C[C@H]3OC(=O)C[C@H]4C(C)=C(OC)C(=O)[C@H]([C@@]2(C)C1=O)[C@@]34C` was tested. Which Activity [1] did it give?
A: 157%

Q: What about the Activity [2] of the same compound?
A: 159%

Q: What about the Activity [3] of the same compound?
A: 163%

Q: What about the Activity (HeLa) of the same compound?
A: Non-Toxic

Q: `COC1=C(CO)[C@@H]2CC(=O)O[C@@H]3C[C@H]4CC[C@H](O)C(=O)[C@]4(C)[C@@H](C1=O)[C@@]32C` was tested. Which Activity [1] did it give?
A: 102%

Q: And the Activity [2]?
A: 137%

Q: What about the Activity [3] of the same compound?
A: 135%

Q: And the Activity (HeLa)?
A: Non-Toxic

Q: What does the source list for `COC1=C(C)[C@@H]2CC(=O)O[C@@H]3C[C@H]4CC[C@H](OC)C(=O)[C@]4(C)[C@@H](C1=O)[C@@]32C`?
A: Activity [1]: 165%; Activity [2]: 168%; Activity [3]: 173%; Activity (HeLa): Non-Toxic

Q: What does the source list for `COC1=CC[C@@H]2C[C@H]3OC(=O)C=C4C(CO)=C(OC)C(=O)[C@H]([C@@]2(C)C1=O)[C@]43C`?
A: Activity [1]: 132%; Activity [2]: 140%; Activity [3]: 141%; Activity (HeLa): Non-Toxic

Q: For `COC1=C[C@@H](O)[C@@H]2C[C@H]3OC(=O)C[C@H]4C(C)=C(OC)C(=O)[C@H]([C@@]2(C)C1=O)[C@@]34C`, which Activity [1] is on record?
A: 140%

Q: And the Activity [2]?
A: 138%

Q: And the Activity [3]?
A: 141%

Q: And the Activity (HeLa)?
A: Non-Toxic

Q: Which results are given for `COc1c(C=O)c(O)cc2c1C(=O)c1ccccc1C2=O` [DAMNACANTHAL]?
A: Activity [1]: 203%; Activity [2]: 218%; Activity [3]: 219%; Activity (HeLa): Non-Toxic

Q: How did the Activity [1] turn out when `COC1=CC[C@@H]2C[C@H]3OC(=O)C=C4C(C)=C(OC)C(=O)[C@H]([C@@]2(C)C1=O)[C@]43C` was run?
A: 175%

Q: What about the Activity [2] of the same compound?
A: 214%

Q: What about the Activity [3] of the same compound?
A: 216%

Q: What about the inhibition [4] of the same compound?
A: Dose-dependent effect

Q: What about the Activity (HeLa) of the same compound?
A: Non-Toxic

Q: How did the Activity [1] turn out when `COC1=C(C)[C@]2(O)CC(=O)O[C@@H]3C[C@H]4CC[C@H](O)C(=O)[C@]4(C)[C@@H](C1=O)[C@@]32C` was run?
A: 162%

Q: What about the Activity [2] of the same compound?
A: 166%

Q: What about the Activity [3] of the same compound?
A: 170%

Q: What about the Activity (HeLa) of the same compound?
A: Non-Toxic

Q: Which results are given for `COC1=CC[C@@H]2C[C@H]3OC(=O)C[C@H]4C(CO)=C(OC)C(=O)[C@H]([C@@]2(C)C1=O)[C@@]34C`?
A: Activity [1]: 148%; Activity [2]: 147%; Activity [3]: 150%; Activity (HeLa): Non-Toxic
